In BigSolDB 2.1:

CS(=O)(=O)c1ccc(C=O)cc1
solubility (mole fraction)
Details | in acetic acid | in acetone | in acetonitrile | in ethanol | in isopropanol | in methanol | in n-butanol | in n-propanol | in toluene
283.15 K | 0.00336 | 0.00798 | 0.00598 | 0.000869 | 0.000288 | 0.00206 | 0.000596 | 0.000541 | 0.000746
285.65 K | 0.00368 | 0.00872 | 0.00661 | 0.000944 | 0.000321 | 0.0022 | 0.000652 | 0.000587 | 0.000825
288.15 K | 0.00401 | 0.00937 | 0.00734 | 0.00103 | 0.000355 | 0.00242 | 0.000724 | 0.000659 | 0.000919
290.65 K | 0.00445 | 0.0104 | 0.00814 | 0.00117 | 0.000405 | 0.00266 | 0.000828 | 0.000742 | 0.00103
293.15 K | 0.00488 | 0.0114 | 0.00903 | 0.0013 | 0.000445 | 0.00295 | 0.000923 | 0.000835 | 0.00115
295.65 K | 0.00539 | 0.0126 | 0.0101 | 0.00143 | 0.000502 | 0.00325 | 0.00102 | 0.000933 | 0.00128
298.15 K | 0.00598 | 0.0136 | 0.0111 | 0.00158 | 0.00056 | 0.00358 | 0.00114 | 0.00105 | 0.00144
300.65 K | 0.00662 | 0.0148 | 0.0123 | 0.00174 | 0.000629 | 0.00392 | 0.00128 | 0.00115 | 0.00161
303.15 K | 0.00727 | 0.0161 | 0.0137 | 0.00192 | 0.000703 | 0.00431 | 0.0014 | 0.00126 | 0.0018
305.65 K | 0.00811 | 0.0174 | 0.0152 | 0.00212 | 0.000796 | 0.00471 | 0.00155 | 0.00141 | 0.002
308.15 K | 0.00895 | 0.0189 | 0.017 | 0.00235 | 0.000894 | 0.00518 | 0.00171 | 0.00157 | 0.00224
310.65 K | 0.00984 | 0.0206 | 0.019 | 0.00258 | 0.00101 | 0.00572 | 0.00191 | 0.00176 | 0.0025
313.15 K | 0.0108 | 0.0226 | 0.021 | 0.00284 | 0.00112 | 0.00623 | 0.00211 | 0.00194 | 0.00276
315.65 K | 0.0118 | 0.0245 | 0.023 | 0.00311 | 0.00125 | 0.00678 | 0.00232 | 0.00216 | 0.00308
318.15 K | 0.0129 | 0.0269 | 0.0252 | 0.00341 | 0.00139 | 0.00739 | 0.0026 | 0.00241 | 0.0034
